In EP4603105A1, “PHARMACEUTICAL COMPOSITION CONTAINING CYCLIC COMPOUND HAVING SELECTIVE KRAS INHIBITORY EFFECT AGAINST HRAS AND NRAS” (CHUGAI SEIYAKU KABUSHIKI KAISHA, priority 2022, dated 2024):
pIC50, pKd: −log10 of the molar value. Read-outs that look alike come from different tables or passages of the source.

Assays:
[1] = target: GDP-bound KRAS wild-type protein (Homo sapiens, UniProt P01116); test: Binding to KRAS by surface plasmon resonance (SPR), dissociation constant KD
Summary of the method: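 Each cycle, GDP-bound biotin-Avi RAS was captured (~100–300 RU), compound concentrations were injected low to high for 75 s each at 100 µL/min, then the chip was regenerated. Buffer: HBS pH 7.4, 10 mM MgCl2, 10 µM GDP, 1 mM DTT, 4% DMSO; 30°C. KD from a 1:1 binding model.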

[2] = target: GDP-bound NRAS wild-type protein (Homo sapiens, UniProt P01111); test: Binding to NRAS by surface plasmon resonance (SPR), KD and KD ratio to KRAS
Summary of the method: (§1)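 SPR, 30°C: Avi-biotin RAS·GDP captured via Biotin CAPture (~100–300 RU); running buffer HBS pH 7.4, 1 mM DTT, 10 mM MgCl2, 0.01% Tween 20, 10 µM GDP, 4% DMSO. Single-cycle kinetics, 100 µL/min, 75 s injections; 1:1 model → KD.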

HRAS wild-type protein = HRAS wild-type protein (Homo sapiens, UniProt P01112); test: Binding to HRAS by surface plasmon resonance (SPR), KD and KD ratio to KRAS
Summary of the method: as §1

[3] = test system: human lung cancer strain NCI-H441; test: NCI-H441 cell proliferation inhibitory activity (CellTiter-Glo, 4 days); format: cell-based; settings: read-out: NCl-H441 IC50
Summary of the method: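 Proliferation was scored by […] measured after the reagent was added to cultures kept at 37°C in 5% carbon dioxide.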

[4] = ratio of KD for GDP-bound NRAS wild-type protein to KD for KRAS
[5] = ratio of KD for HRAS wild-type protein to KD for KRAS
[6] = Single Cycle Kinetics, 1:1 binding model
[7] = ratio of KD with respect to GDP-bound NRAS wild-type protein to KD with respect to KRAS
[8] = ratio of KD with respect to HRAS wild-type protein to KD with respect to KRAS
[9] = 50% proliferation inhibitory concentration, four days

GDP-bound NRAS wild-type protein, sequence (P01111 whole entry): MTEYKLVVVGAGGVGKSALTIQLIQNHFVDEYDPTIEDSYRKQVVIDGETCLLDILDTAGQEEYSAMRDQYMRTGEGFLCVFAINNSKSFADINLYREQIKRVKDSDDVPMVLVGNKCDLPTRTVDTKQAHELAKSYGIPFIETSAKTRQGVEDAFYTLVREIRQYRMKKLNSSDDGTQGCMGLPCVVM
HRAS wild-type protein, sequence (P01112 whole entry): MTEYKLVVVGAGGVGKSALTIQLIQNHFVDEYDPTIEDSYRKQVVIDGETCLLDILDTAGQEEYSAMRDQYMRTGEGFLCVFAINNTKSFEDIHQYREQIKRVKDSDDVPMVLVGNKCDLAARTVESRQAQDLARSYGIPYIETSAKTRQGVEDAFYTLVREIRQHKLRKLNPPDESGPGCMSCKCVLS
GDP-bound KRAS wild-type protein, sequence (P01116 1-188 isoform P01116-2): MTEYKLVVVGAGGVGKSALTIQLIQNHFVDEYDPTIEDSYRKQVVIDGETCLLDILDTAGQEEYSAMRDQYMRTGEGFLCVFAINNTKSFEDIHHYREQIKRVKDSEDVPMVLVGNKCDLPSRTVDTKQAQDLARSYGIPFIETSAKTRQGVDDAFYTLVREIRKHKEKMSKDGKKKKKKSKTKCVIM

Row | Structure (SMILES) | pKd ([1]; 1:1 binding model) | NRAS /KRAS [2, 4] | HRAS /KRAS (HRAS wild-type protein; [5]) | pIC50 ([3]; NCI-H441 cells, 4 days) | pKd ([1]; Single Cycle Kinetics) | pKd [1, 6] | NRAS /KRAS [2, 7] | HRAS /KRAS (HRAS wild-type protein; [8]) | pIC50 [3, 9]
1 | CCO[C@@H]1C[C@H]2C(=O)NC3(CC(C)(C)C3)C(=O)N(C)[C@@H](C(CC)CC)C(=O)N(C)[C@H](C(=O)N(C)C)CC(=O)N(C)[C@@H](CC3CC3)C(=O)N[C@@H]([C@@H](C)CC)C(=O)N(C)CC(=O)N(C)[C@H]3C/C=C\CCN(C3=O)[C@@H](CC3CCC(F)(F)CC3)C(=O)N(C)CC(=O)N[C@@H](CCc3ccc(C(F)(F)F)c(OC)c3)C(=O)N2C1 [PP2480] | 9.08 | A (a compound having 10 or more and less than 20 is denoted as A) | A (a compound having 10 or more and less than 20 is denoted as A) | 7.52 |  |  |  |  | 
2 | C=C(C)C[C@H]1C(=O)N(C)[C@H](C(=O)N(C)C)CC(=O)N(C)[C@@H](CCC)C(=O)N[C@@H]([C@@H](C)CC)C(=O)N(C)CC(=O)N(C)[C@H]2C/C=C\CCN(C2=O)[C@@H](Cc2ccc(C(F)(F)F)cc2)C(=O)N(C)CC(=O)N[C@@H](CCc2cc(F)c(C(F)(F)F)c(F)c2)C(=O)N2C[C@H](OCC)C[C@H]2C(=O)N(C)C2(CCC2)C(=O)N1C [PP3337] |  | A (a compound having 10 or more and less than 20 is denoted as A) | A (a compound having 10 or more and less than 20 is denoted as A) | 7.18 | 8.89 |  |  |  | 
3 | CC[C@H](C)[C@@H]1NC(=O)[C@H](CC)N(C)C(=O)C[C@@H](C(=O)N(C)C)N(C)C(=O)[C@H](C2CCCC2)N(C)C(=O)C2(CCC2)NC(=O)[C@@H]2CCCN2C(=O)[C@H](CCc2cc(F)c(C(F)(F)F)c(F)c2)NC(=O)CN(C)C(=O)[C@H](Cc2ccc(C(F)(F)F)cc2)N2CC/C=C\C[C@@H](C2=O)N(C)C(=O)CN(C)C1=O [PP1135] |  |  |  |  |  | 10.03 | A (a compound having 10 or more and less than 20 is denoted as A) | A (a compound having 10 or more and less than 20 is denoted as A) | 7.36
4 | C=C(C)C[C@H]1C(=O)N(C)[C@H](C(=O)N(C)C)CC(=O)N(C)[C@@H](CCC)C(=O)N[C@@H]([C@@H](C)CC)C(=O)N2CCC[C@H]2C(=O)N(C)[C@H]2C/C=C\CCN(C2=O)[C@@H](Cc2ccc(C(F)(F)F)cc2)C(=O)N(C)CC(=O)N[C@@H](CCc2cc(F)c(C(F)(F)F)c(F)c2)C(=O)N2C[C@H](OCC)C[C@H]2C(=O)N(C)C2(CCC2)C(=O)N1C [PP3339] |  | A (a compound having 10 or more and less than 20 is denoted as A) | A (a compound having 10 or more and less than 20 is denoted as A) | 6.98 | 8.44 |  |  |  | 
5 | CCO[C@@H]1C[C@H]2C(=O)NC3(CCCC3)C(=O)N(C)[C@@H](C3CCCC3)C(=O)N(C)[C@H](C(=O)N(C)C)CC(=O)N(C)[C@@H]([C@@H](C)OC)C(=O)N[C@@H]([C@@H](C)CC)C(=O)N3CCC[C@H]3C(=O)N(C)[C@H]3C/C=C\CCN(C3=O)[C@@H](Cc3ccc(C(F)(F)F)cc3)C(=O)N(C)CC(=O)N[C@@H](CCc3cc(F)c(C(F)(F)F)c(F)c3)C(=O)N2C1 [PP3477] |  | A (a compound having 10 or more and less than 20 is denoted as A) | A (a compound having 10 or more and less than 20 is denoted as A) | 7.35 | 9.29 |  |  |  | 
6 | CCC[C@H]1C(=O)N[C@@H]([C@@H](C)CC)C(=O)N(C)CC(=O)N(C)[C@H]2C/C=C\CCN(C2=O)[C@@H](Cc2ccc(C)cc2)C(=O)N(C)CC(=O)N[C@@H](CCc2cc(F)c(C(F)(F)F)c(F)c2)C(=O)N2CC3(CC3)C[C@H]2C(=O)N(C)C2(CCC2)C(=O)N(C)[C@@H]([C@@H](C)CC)C(=O)N(C)[C@H](C(=O)N(C)C)CC(=O)N1C [PP3331] |  | A (a compound having 10 or more and less than 20 is denoted as A) | A (a compound having 10 or more and less than 20 is denoted as A) | 8.15 | 10.00 |  |  |  | 
7 | CCC[C@H]1C(=O)N[C@@H](C2CCCC2)C(=O)N(C)CC(=O)N(C)[C@H]2C/C=C\CCN(C2=O)[C@@H](Cc2ccc(C(F)(F)F)cc2)C(=O)N(C)CC(=O)N[C@@H](CCc2ccc(C(F)(F)F)c(Cl)c2)C(=O)N2CC3(CC3)C[C@H]2C(=O)N(C)C2(CCC2)C(=O)N(C)[C@@H](C(CC)CC)C(=O)N(C)[C@H](C(=O)N(C)C)CC(=O)N1C [PP3321] |  | AA (a compound having 20 or more is denoted as AA) | A (a compound having 10 or more and less than 20 is denoted as A) | 8.10 | 9.07 |  |  |  | 
8 | CCO[C@@H]1C[C@H]2C(=O)NC3(CCC3)C(=O)N(C)[C@@H](C3CCCC3)C(=O)N(C)[C@H](C(=O)N(C)C)CC(=O)N(C)[C@@H](COCC(F)(F)F)C(=O)N[C@@H]([C@@H](C)CC)C(=O)N(C)CC(=O)N(C)[C@H]3C/C=C\CCN(C3=O)[C@@H](Cc3ccc(C(F)(F)F)cc3)C(=O)N(C)CC(=O)N[C@@H](CCc3cc(F)c(C(F)(F)F)c(F)c3)C(=O)N2C1 [PP1267] |  |  |  |  |  | 10.34 | A (a compound having 10 or more and less than 20 is denoted as A) | A (a compound having 10 or more and less than 20 is denoted as A) | 7.97
9 | CCC[C@H]1C(=O)N[C@@H]([C@@H](C)CC)C(=O)N2CCC[C@H]2C(=O)N(C)[C@H]2C/C=C\CCN(C2=O)[C@@H](Cc2ccc(C)cc2)C(=O)N(C)CC(=O)N[C@@H](CCc2ccc(Cl)c(Cl)c2)C(=O)N2C[C@H](OCC)C[C@H]2C(=O)NC2(CC(C)(C)C2)C(=O)N(C)[C@@H](C(CC)CC)C(=O)N(C)[C@H](C(=O)N(C)C)CC(=O)N1C [PP2638] | 8.60 | AA (a compound having 20 or more is denoted as AA) | A (a compound having 10 or more and less than 20 is denoted as A) | 7.01 |  |  |  |  | 
10 | CCCC[C@@H]1NC(=O)C[C@@H](C(=O)N(C)C)N(C)C(=O)[C@H](C2CCCC2)N(C)C(=O)C2(CC(C)(C)C2)NC(=O)[C@@H]2C[C@@H](OCC)CN2C(=O)[C@H](CCc2ccc(C(F)(F)F)c(Cl)c2)NC(=O)CN(C)C(=O)[C@H](Cc2ccc(C(F)(F)F)cc2)N2CC/C=C\C[C@@H](C2=O)N(C)C(=O)CN(C)C(=O)[C@H]([C@@H](C)CC)NC1=O [PP3453] |  | A (a compound having 10 or more and less than 20 is denoted as A) | A (a compound having 10 or more and less than 20 is denoted as A) | 7.71 | 9.47 |  |  |  | 
11 | CCO[C@@H]1C[C@H]2C(=O)NC3(CCC3)C(=O)N(C)[C@@H](C(CC)CC)C(=O)N(C)[C@H](C(=O)N3CCCC3)CC(=O)N(C)[C@@H](C)C(=O)N[C@@H]([C@@H](C)CC)C(=O)N(C)CC(=O)N(C)[C@H]3C/C=C\CCN(C3=O)[C@@H](CC3CCC(F)(F)CC3)C(=O)N(C)CC(=O)N[C@@H](CCc3cc(F)c(C(F)(F)F)c(F)c3)C(=O)N2C1 [PP1436] |  |  |  |  |  | 9.54 | AA (a compound having 20 or more is denoted as AA) | A (a compound having 10 or more and less than 20 is denoted as A) | 7.32
12 | CCCOC[C@H]1C(=O)N[C@@H]([C@@H](C)CC)C(=O)N(C)CC(=O)N(C)[C@H]2C/C=C\CCN(C2=O)[C@@H](Cc2ccc(C)cc2)C(=O)N(C)CC(=O)N[C@@H](CCc2ccc(C(F)(F)F)c(Cl)c2)C(=O)N2C[C@@H](C)C[C@H]2C(=O)NC2(CC(C)(C)C2)C(=O)N(C)[C@@H](C2CCCC2)C(=O)N(C)[C@H](C(=O)N(C)CC)CC(=O)N1C [PP2467] | 9.59 | A (a compound having 10 or more and less than 20 is denoted as A) | B (a compound having 3 or more and less than 10 is denoted as B) | 7.66 |  |  |  |  | 
13 | CCCO[C@@H]1C[C@H]2C(=O)NC3(CC(C)(C)C3)C(=O)N(C)[C@@H](C3CCCC3)C(=O)N(C)[C@H](C(=O)N(C)CC)CC(=O)N(C)[C@@H](COCC)C(=O)N[C@@H]([C@@H](C)CC)C(=O)N3C[C@@H](C)C[C@H]3C(=O)N(C)[C@H]3C/C=C\CCN(C3=O)[C@@H](Cc3ccc(C(F)(F)F)cc3)C(=O)N(C)CC(=O)N[C@@H](CCc3ccc(C(F)(F)F)c(OC)c3)C(=O)N2C1 [PP3415] |  | A (a compound having 10 or more and less than 20 is denoted as A) | A (a compound having 10 or more and less than 20 is denoted as A) | 7.32 | 8.60 |  |  |  | 
14 | CCO[C@@H]1C[C@H]2C(=O)NC3(CCC3)C(=O)N(C)[C@@H](C3CCCC3)C(=O)N(C)[C@H](C(=O)N(C)C)CC(=O)N(C)[C@@H](CC(C)(C)C)C(=O)N[C@@H]([C@@H](C)CC)C(=O)N(C)CC(=O)N(C)[C@H]3C/C=C\CCN(C3=O)[C@@H](CC3CCCCC3)C(=O)N(C)CC(=O)N[C@@H](CCc3cc(F)c(C(F)(F)F)c(F)c3)C(=O)N2C1 [PP1474] |  |  |  |  |  | 9.64 | A (a compound having 10 or more and less than 20 is denoted as A) | A (a compound having 10 or more and less than 20 is denoted as A) | 7.32
15 | CCCO[C@@H]1C[C@H]2C(=O)NC3(CC(C)(C)C3)C(=O)N(C)[C@@H](C3CCCC3)C(=O)N(C)[C@H](C(=O)N(C)CC)CC(=O)N(C)[C@@H](COCC)C(=O)N[C@@H]([C@@H](C)CC)C(=O)N3CCC[C@H]3C(=O)N(C)[C@H]3C/C=C\CCN(C3=O)[C@@H](Cc3ccc(C(F)(F)F)cc3)C(=O)N(C)CC(=O)N[C@@H](CCc3ccc(C(F)(F)F)c(Cl)c3)C(=O)N2C1 [PP3405] |  | A (a compound having 10 or more and less than 20 is denoted as A) | A (a compound having 10 or more and less than 20 is denoted as A) | 7.39 | 8.82 |  |  |  | 
